Data published in ChEMBL document CHEMBL3044593, “Design, synthesis and anticonvulsant evaluation of novel 8-substituted-4(3H)-quinazolines” (Med Chem Res, 2012).
Active and inactive are the calls of the source. No cut-off for these calls is given here.

Assays:
Mus musculus [1] = test: Anticonvulsant activity in Mus musculus (mouse) assessed as protection against picrotoxin-induced seizures at 0.5 mmol/kg, ip administered 30 min prior to seizure induction measured for 60 min relative to control; type: functional, organism-based
Mus musculus [2] = test: Anticonvulsant activity in Mus musculus (mouse) assessed as protection against strychnine-induced seizures at 0.5 mmol/kg, ip administered 30 min prior to seizure induction measured for 60 min relative to control; type: functional, organism-based
Mus musculus [3] = test: Anticonvulsant activity in Mus musculus (mouse) assessed as protection against maximal electroshock-induced seizures at 0.5 mmol/kg, ip administered 30 min prior to seizure induction measured for 60 min relative to control; type: functional
Mus musculus [4] = test: Anticonvulsant activity in Mus musculus (mouse) assessed as protection against pentylenetetrazol-induced seizures at 0.5 mmol/kg, ip administered 30 min prior to seizure induction measured for 60 min relative to control; type: functional
[5] = Therapeutic index, ratio of LD50 for ip dosed Mus musculus (mouse) to ED50 for protection against pentylenetetrazol-induced seizures in ip dosed mouse; type: organism-based; settings: in vivo, read-out: Ratio LD50/ED50
[6] = Acute neurotoxicity in ip dosed Mus musculus (mouse) assessed as motor impairment administered 30 min prior to testing measured for 30 secs by chimney test; type: toxicity, organism-based; settings: in vivo
Mus musculus [7] = test: Anticonvulsant activity in ip dosed Mus musculus (mouse) assessed as protection against pentylenetetrazol-induced seizures administered 30 min prior to seizure induction measured for 60 min; type: functional
Mus musculus [8] = test: Anticonvulsant activity in Mus musculus (mouse) assessed as protection against maximal electroshock-induced seizures at 1.4 mmol/kg, ip administered 30 min prior to seizure induction measured for 60 min relative to control; type: functional
Mus musculus [9] = test: Anticonvulsant activity in Mus musculus (mouse) assessed as protection against pentylenetetrazol-induced seizures at 1.4 mmol/kg, ip administered 30 min prior to seizure induction measured for 60 min relative to control; type: functional
[10] = Toxicity in ip dosed Mus musculus (mouse) assessed as mortality; type: organism-based; settings: in vivo
Mus musculus [11] = test: Anticonvulsant activity in Mus musculus (mouse) assessed as protection against maximal electroshock-induced seizures at 1.5 mmol/kg, ip administered 30 min prior to seizure induction measured for 60 min relative to control; type: functional
Mus musculus [12] = test: Anticonvulsant activity in Mus musculus (mouse) assessed as protection against pentylenetetrazol-induced seizures at 1.5 mmol/kg, ip administered 30 min prior to seizure induction measured for 60 min relative to control; type: functional
Mus musculus [13] = test: Protective index, ratio of TD50 for ip dosed Mus musculus (mouse) to ED50 for protection against pentylenetetrazol-induced seizures in ip dosed mouse; type: functional

Compound	Activity (Mus musculus [1])	Activity (Mus musculus [2])	Activity (Mus musculus [3]) [%]	Activity (Mus musculus [4]) [%]	selectivity ratio [5]	TD50 at 0.5 min [6] [µmol/kg]	ED50 (Mus musculus [7]) [µmol/kg]	Activity (Mus musculus [8]) [%]	Activity (Mus musculus [9]) [%]	LD50 [10] [µmol/kg]	Activity (Mus musculus [11]) [%]	Activity (Mus musculus [12]) [%]	Ratio TD50/ED50 (Mus musculus [13])
Cc1ccccc1-n1c(C)nc2c(OCC(=O)N/N=C\c3ccccc3F)cccc2c1=O	inactive	inactive	50	66	–	–	–	–	–	–	–	–	–
Cc1ccccc1-n1c(C)nc2ccccc2c1=O [METHAQUALONE]	–	–	–	–	1.4	1600	1400	100	100	–	–	–	–
Cc1ccccc1-n1c(C)nc2c(OCC(=O)NNC(=S)NN)cccc2c1=O	inactive	inactive	33	66	–	–	–	–	–	–	–	–	–
Cc1ccccc1-n1c(C)nc2c(OCC(=O)NCCO)cccc2c1=O	inactive	inactive	0	50	–	–	–	–	–	–	–	–	–
CCOC(=O)NNC(=O)COc1cccc2c(=O)n(-c3ccccc3C)c(C)nc12	inactive	inactive	100	100	1.51	600	390	–	–	1020	–	–	–
Cc1ccccc1-n1c(C)nc2c(OCC(=O)NNC(=O)NN)cccc2c1=O	inactive	inactive	0	50	–	–	–	–	–	–	–	–	–
CCCC(CCC)C(=O)[O-].[Na+] [VALPROATE SODIUM]	–	–	–	–	–	9600	4800	–	–	11900	100	100	–
Cc1ccccc1-n1c(C)nc2c(OCC(=O)NN)cccc2c1=O	inactive	inactive	50	100	10.2	790	290	–	–	2960	–	–	2.7
CSC(=S)NNC(=O)COc1cccc2c(=O)n(-c3ccccc3C)c(C)nc12	inactive	inactive	100	100	3.34	670	350	–	–	1170	–	–	–
Cc1ccccc1-n1c(C)nc2c(OCC(=O)NNC(N)=O)cccc2c1=O	inactive	inactive	0	50	–	–	–	–	–	–	–	–	–
Cc1ccccc1-n1c(C)nc2c(OCC(=O)N/N=C\c3ccccc3)cccc2c1=O	inactive	inactive	0	50	–	–	–	–	–	–	–	–	–
COc1ccccc1/C=N\NC(=O)COc1cccc2c(=O)n(-c3ccccc3C)c(C)nc12	inactive	inactive	0	33	–	–	–	–	–	–	–	–	–
